Patent US9814724B2, “Antitumor effect potentiator and antitumor agent” (TAIHO PHARMACEUTICAL CO., LTD., priority 2003, dated 2017)

What was measured:
[1] = tested on: 5-FU degradation; conditions: compared with uracil; cited from earlier work
[2] = tested on: human colon cancer cell line KM20C; test: Antitumor effect on subcutaneously implanted KM20C tumor in nude mice, 9-day oral dosing (Example 1); format: in vivo, male nude mice BALB/c-nu/nu; conditions: folinic acid 20.0 mg/kg/day (given as calcium folinate), alone or with tegafur+gimeracil+oteracil potassium 8.3+2.4+8.1 mg/kg/day or tegafur+uracil 20.0+44.8 mg/kg/day, oral once a day for 9 days, 10 days after grouping
Procedure: The ratio of the tumor volume 10 days after grouping to the tumor volume upon grouping was calculated to obtain a relative tumor volume. The tumor growth inhibition ratio (%) was determined using the relative tumor volumes of the drug-administered groups and the control group.

[3] = Antitumor effect on subcutaneously implanted Colon 38 tumor in mice, 9-day oral dosing (Example 2); format: in vivo, male mice C57BL/6; conditions: folinic acid 40.0 mg/kg/day (given as calcium folinate), alone or with tegafur+gimeracil+oteracil potassium 8.7+2.5+8.5 mg/kg/day or tegafur+uracil 15.1+33.8 mg/kg/day, oral once a day for 9 days; 12 days after grouping
Procedure: (§1) The ratio of the tumor volume 12 days after grouping to the tumor volume upon grouping was calculated to obtain a relative tumor volume. The tumor growth inhibition ratio (%) was determined using the relative tumor volumes of the drug-administered groups and the control group.

[4] = tested on: human colon cancer cell line Colon 38; test: as above; format: in vivo, male mice C57BL/6; conditions: folinic acid 40.0 mg/kg/day (given as calcium folinate), alone or with tegafur+gimeracil+oteracil potassium 8.7+2.5+8.5 mg/kg/day or tegafur+uracil 15.1+33.8 mg/kg/day, oral once a day for 9 days; 12 days after grouping, vs control group
Procedure: as §1

[5] = tested on: human colon cancer cell line KM20C; test: Effect of folinate dosage on the antitumor effect on implanted KM20C tumor in nude mice, 14-day oral dosing (Example 3); format: in vivo, male nude mice (BALB/cA-nu); conditions: for enhancement of the antitumor effect of the tegafur/gimeracil/oteracil potassium combined drug: KM20C
Procedure: The ratio of the tumor volume 15 days after grouping to the tumor volume upon grouping was calculated to obtain a relative tumor volume. The tumor growth inhibition ratio (%) was determined using the relative tumor volumes of the drug-administered groups and the control group.

[6] = Body weight change as parameter of whole-body toxicity (Example 1); conditions: folinic acid 20.0 mg/kg/day (given as calcium folinate), alone or with tegafur+gimeracil+oteracil potassium 8.3+2.4+8.1 mg/kg/day or tegafur+uracil 20.0+44.8 mg/kg/day, oral once a day for 9 days; 10 days after beginning of administration
Text: A cubic fragment measuring about 2 mm in diameter of the human colon cancer cell line KM20C was subcutaneously implanted on the backs of male nude mice BALB/c-nu/nu. When the average tumor volume (=major axis (mm)×minor axis (mm)^2) reached about 200 mm^3, the mice were divided into groups.
The following preparations each dissolved or suspended in a 0.5% hydroxypropylmethyl cellulose (HPMC) solution were orally administered to the mice once a day in amounts as shown in Table 1 for 9 consecutive days from the day after grouping: calcium folinate; a tegafur/gimeracil/oteracil potassium combined drug (molar ratio of tegafur:gimeracil:oteracil potassium=1:0.4:1); a combined drug containing the tegafur/gimeracil/oteracil potassium combined drug described above and calcium folinate; a tegafur/uracil combined drug (molar ratio of tegafur:uracil=1:4); and a combined drug containing the tegafur/uracil combined drug described above and calcium folinate.
(§2) The body weight change was calculated by subtracting the body weight of mice 10 days after the beginning of administration from the body weight of mice upon grouping and used as a parameter of whole-body toxicity of the pharmaceutical preparation.

[7] = Body weight change as parameter of whole-body toxicity (Example 2); conditions: folinic acid 40.0 mg/kg/day (given as calcium folinate), alone or with tegafur+gimeracil+oteracil potassium 8.7+2.5+8.5 mg/kg/day or tegafur+uracil 15.1+33.8 mg/kg/day, oral once a day for 9 days; 10 days after beginning of administration
Text: A cubic fragment measuring about 2 mm in diameter of the human colon cancer cell line Colon 38 was subcutaneously implanted on the backs of male mice C57BL/6. When the average tumor volume (=major axis (mm)×minor axis (mm)^2) reached about 150 mm^3, the mice were divided into groups.
The following preparations each dissolved or suspended in a 0.5% hydroxypropylmethyl cellulose (HPMC) solution were orally administered to the mice once a day in amounts as shown in Table 2 for 9 consecutive days from the day after grouping: calcium folinate; a tegafur/gimeracil/oteracil potassium combined drug (molar ratio of tegafur:gimeracil:oteracil potassium=1:0.4:1); a combined drug containing the tegafur/gimeracil/oteracil potassium combined drug described above and calcium folinate; a tegafur/uracil combined drug (molar ratio of tegafur:uracil=1:4); and a combined drug containing the tegafur/uracil combined drug described above and calcium folinate.
as §2

[8] = Body weight change as parameter of whole-body toxicity (Example 3); conditions: folinic acid 20.0 mg/kg/day (as calcium folinate), alone or with tegafur+gimeracil+oteracil potassium 5.7+1.7+5.6 mg/kg/day, oral once a day for 14 days; 15 days after beginning of administration
Text: A cubic fragment measuring about 2 mm in diameter of the human colon cancer cell line KM20C was subcutaneously implanted on the backs of male nude mice (BALB/cA-nu). When the average tumor volume (=major axis (mm)×minor axis (mm)^2) reached about 200 mm^3, the mice were divided into groups.
A combined drug containing a tegafur/gimeracil/oteracil potassium combined drug (molar ratio of tegafur:gimeracil oteracil potassium=1:0.4:1) and calcium folinate, dissolved or suspended in a 0.5% hydroxypropylmethyl cellulose (HPMC) solution was orally administered to the mice once a day in amounts as shown in Table 3 for 14 consecutive days from the day after grouping.
The body weight change was calculated by subtracting the body weight of mice 15 days after the beginning of administration from the body weight of mice upon grouping used as a parameter of whole-body toxicity of the pharmaceutical preparation. Although calcium folinate was used in the experiment, the dosage given in the table is that calculated as the amount of folinic acid.

| SMILES | 5-FU degradation inhibitory effect relative to that of uracil [1] | Relative tumor volume (Mean ± SD) [2] | Tumor growth inhibition ratio (%) ([2]; vs control group) | Relative tumor volume (Mean ± SD) [3] | Tumor growth inhibition ratio (%) [4] [%] | enhancement of the antitumor effect of the tegafur/gimeracil/oteracil potassium combined drug ([5]; calcium folinate at the dose of 2.5 mg/kg/day) | enhancement of the antitumor effect of the tegafur/gimeracil/oteracil potassium combined drug ([5]; calcium folinate at the dose of 5 mg/kg/day) | Relative tumor volume (Mean ± SD) ([5]; folinic acid 20.0 mg/kg/day (as calcium folinate), alone or with tegafur+gimeracil+oteracil potassium 5.7+1.7+5.6 mg/kg/day, oral once a day for 14 days, 15 days after grouping) | Tumor growth inhibition ratio (%) ([5]; folinic acid 20.0 mg/kg/day (as calcium folinate), alone or with tegafur+gimeracil+oteracil potassium 5.7+1.7+5.6 mg/kg/day, oral once a day for 14 days, 15 days after grouping, vs control group) | Body weight change [6] [g] | Body weight change [7] [g] | Body weight change [8] [g] |
| --- | --- | --- | --- | --- | --- | --- | --- | --- | --- | --- | --- | --- |
| Oc1cc(O)c(Cl)cn1 [gimeracil, 2,4-dihydroxy-5-chloropyridine] | about 200 times | – | – | – | – | – | – | – | – | – | – | – |
| Nc1nc(=O)c2c([nH]1)NCC(CNc1ccc(C(=O)N[C@@H](CCC(=O)O)C(=O)O)cc1)N2C=O (mixture of isomers) [folinic acid] | – | 2.24 | 6.1 | 8.78 | 7.5 | some enhancement | clear enhancement | 4.50 ± 1.25 ^ | 5.4 | -0.8 | 0.7 | -0.6 |
